The results in this text go back to patent US9669005B2, “Use of naringenin in preparing drugs for preventing and/or treatment abdominal aortic aneurysm” (priority 2013, dated 2017).

Holding throughout (format): in vivo
For data set [1], the system named is IL-6, MCP-1, IL-10, TNF-α and IFN-γ in plasma. The experiment in a line: Inflammatory factors in plasma by flow kit, angiotensin II model. Conditions: AngII ApoE-/- mice, naringenin gavage, FIG. 7B. The method, then: Eyeballs of mice were removed and blood was drawn, 20 μl of heparin was added into the blood, after centrifuged at 6000 rotations and 4[…] for 10 minutes, the supernatant was aspirated. 10 μl of supernatant was taken, and 10 μl of beads were added, and then 10 μl of PE was added, washed twice with lotion after incubating for 2 hours at room temperature, and then 200 μl of lotion is added. Sorting was performed in the manner of up-flowing after blending (wherein, the flow kits of inflammatory factors of mice were purchased from BD Company).

Data set [2] is described as follows: Biochemical indexes, body weight and blood pressure of angiotensin II induced ApoE-/- mice. To be noted: naringenin 50 mg/kg gavage 28 days. The method, then: Firstly, 16 weeks of male ApoE^−/− mice were randomly divided into two groups, control group (n=16) and naringenin group (n=15), respectively. And then they were anesthetized by 0.1% pentobarbital sodium, and mini pumps (model 2004, Alzet, Cupertino, Calif.) were subcutaneously submerged; angiotensin II (Sigma-Aldrich, St. Louis, Mo.) dissolved with normal saline was added to the pump, such that drugs can be continuously administrated for 4 weeks at a dosage of 1000 ng/kg/min. From the first day after surgery, gavage was daily performed to mice at constant time points, water gavage in control group, and naringenin gavage (50 mg/kg) in naringenin group. Materials were removed 28 days after gavage. Blood pressure of the mice was measured by tail cuff method with BP-89A sphygmomanometer (Beijing Softron Biotechnology Co., Ltd.), and the mice were weighted. Blood was drawn in inner canthus of the mice, and after centrifuged for 10 minutes at 6000 rotations, supernatant was removed and the blood fat levels of the mice were measured.

A further data set relates to IL-6 and MCP-1. As to the kind of experiment: Immunofluorescent staining of IL-6 and MCP-1 in vascular walls, angiotensin II model. To be noted: AngII ApoE-/- mice; naringenin gavage; immunofluorescence; FIG. 7C. The method, then:
In order to illustrate the mechanism by which naringenin reduces inflammatory reaction of abdominal aorta vascular walls of mice, immunofluorescent staining was performed on IL-6 and MCP-1 by continuous sections to analyze their distributions and expressions in vascular walls.

Setting [3] is: AngII 1000 ng/kg/min ApoE-/- mice.

Each structure is given as a SMILES string.

Take `O=C1C[C@@H](c2ccc(O)cc2)Oc2cc(O)cc(O)c21` [naringenin]: in data set [1], the IL-10 in plasma entry is on record as “does not change significantly”; the “TNF-α and IFN-γ in plasma” value is given as “do not change”. Besides, the “levels of IL-6 and MCP-1 in plasma” value in data set [1] (n=11, P<0.05) is recorded as “significantly decrease”. In data set [2] (setting [3]), this compound registered a Body weight of 28.9 ± 2.03 g, a Cholesterol of 8.46 ± 2.45 mmol, a High density lipoprotein of 56.5 ± 5.97 mg/deciliter and a Low density lipoprotein of 44.1 ± 15.9 mg/deciliter. The compound further came in with a Triglyceride in data set [2] (setting [3]) of 0.69 ± 0.35 mmol. Further, in data set [2] (AngII 1000 ng/kg/min ApoE-/- mice, tail cuff method), the Blood pressure amounted to 136.6 ± 14.27 mmHg. Besides, in data set [2] (AngII ApoE-/- mice), the “blood pressure and body weight” value is reported as “does not have an effect”; the “levels of cholesterol, triglyceride, and low density lipoprotein” value was “reduces”. The “production of IL-6 and MCP-1 in vascular walls” value with IL-6 and MCP-1 is on record as “significantly decreases”.
